From publication PMC6199744, “Development of Chemical Proteomics for the Folateome and Analysis of the Kinetoplastid Folateome” (ACS Infectious Diseases, 2018) come the findings set out here.

Assay type in all cases: binding
For experiment [1], the target named is T1, HeLa cell extract proteins (Homo sapiens, UniProt P62258).
T1 construct: endogenous in cells; host or cells: HeLa cell extract
T1 sequence (P62258 1-255): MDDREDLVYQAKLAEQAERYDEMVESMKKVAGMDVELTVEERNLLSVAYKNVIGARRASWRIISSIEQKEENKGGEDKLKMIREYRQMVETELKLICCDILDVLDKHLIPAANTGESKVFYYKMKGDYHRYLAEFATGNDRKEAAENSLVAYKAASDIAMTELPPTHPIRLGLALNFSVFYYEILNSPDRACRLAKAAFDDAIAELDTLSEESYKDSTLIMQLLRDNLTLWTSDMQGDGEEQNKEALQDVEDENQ

The target in experiment [2] is T2, HeLa cell extract proteins (Homo sapiens, UniProt P49588).
T2 construct: endogenous in cells; host or cells: HeLa cell extract
T2 sequence (P49588 1-968): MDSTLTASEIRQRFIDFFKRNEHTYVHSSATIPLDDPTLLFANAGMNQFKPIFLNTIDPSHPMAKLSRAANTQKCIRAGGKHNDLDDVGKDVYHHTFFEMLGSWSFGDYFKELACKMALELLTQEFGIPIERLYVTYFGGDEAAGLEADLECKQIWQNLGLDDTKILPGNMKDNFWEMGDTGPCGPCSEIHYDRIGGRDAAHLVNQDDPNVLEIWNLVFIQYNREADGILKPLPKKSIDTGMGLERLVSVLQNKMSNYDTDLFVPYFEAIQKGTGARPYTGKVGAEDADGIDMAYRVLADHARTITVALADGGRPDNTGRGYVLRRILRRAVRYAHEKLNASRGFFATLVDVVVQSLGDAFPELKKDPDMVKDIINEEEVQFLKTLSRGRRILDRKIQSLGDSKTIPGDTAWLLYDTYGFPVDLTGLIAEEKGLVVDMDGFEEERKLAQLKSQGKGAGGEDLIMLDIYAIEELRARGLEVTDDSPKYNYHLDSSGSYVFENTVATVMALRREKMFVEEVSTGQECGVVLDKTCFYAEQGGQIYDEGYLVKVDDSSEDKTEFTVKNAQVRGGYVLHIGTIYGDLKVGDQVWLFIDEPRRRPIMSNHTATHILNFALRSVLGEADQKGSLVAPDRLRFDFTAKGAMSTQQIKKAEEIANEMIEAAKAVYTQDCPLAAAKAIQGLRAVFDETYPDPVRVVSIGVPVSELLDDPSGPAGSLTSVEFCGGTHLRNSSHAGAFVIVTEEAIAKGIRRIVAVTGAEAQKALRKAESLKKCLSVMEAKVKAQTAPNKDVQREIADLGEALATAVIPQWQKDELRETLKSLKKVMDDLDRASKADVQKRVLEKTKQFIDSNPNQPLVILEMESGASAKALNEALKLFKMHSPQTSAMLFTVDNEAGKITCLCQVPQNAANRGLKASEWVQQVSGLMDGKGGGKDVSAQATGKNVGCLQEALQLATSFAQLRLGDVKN

For experiment [3], the target named is T3, HeLa cell extract proteins (Homo sapiens, UniProt Q9NQR4).
T3 construct: endogenous in cells; host or cells: HeLa cell extract
T3 sequence (Q9NQR4 1-276): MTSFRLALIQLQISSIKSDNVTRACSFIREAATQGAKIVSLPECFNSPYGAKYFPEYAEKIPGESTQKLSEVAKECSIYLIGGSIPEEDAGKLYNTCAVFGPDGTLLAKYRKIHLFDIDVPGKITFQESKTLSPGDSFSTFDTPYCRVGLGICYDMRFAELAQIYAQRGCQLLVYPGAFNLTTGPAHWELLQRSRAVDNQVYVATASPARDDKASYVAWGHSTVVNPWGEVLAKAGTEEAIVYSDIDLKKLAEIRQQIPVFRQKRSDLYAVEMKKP

The target of experiment [4] is T4, HeLa cell extract proteins (Homo sapiens, UniProt Q63HN8).
T4 construct: endogenous in cells; host or cells: HeLa cell extract

Experiment [5] deals with T5, HeLa cell extract proteins (Homo sapiens, UniProt O95429).
T5 construct: endogenous in cells; host or cells: HeLa cell extract
T5 sequence (O95429 1-457): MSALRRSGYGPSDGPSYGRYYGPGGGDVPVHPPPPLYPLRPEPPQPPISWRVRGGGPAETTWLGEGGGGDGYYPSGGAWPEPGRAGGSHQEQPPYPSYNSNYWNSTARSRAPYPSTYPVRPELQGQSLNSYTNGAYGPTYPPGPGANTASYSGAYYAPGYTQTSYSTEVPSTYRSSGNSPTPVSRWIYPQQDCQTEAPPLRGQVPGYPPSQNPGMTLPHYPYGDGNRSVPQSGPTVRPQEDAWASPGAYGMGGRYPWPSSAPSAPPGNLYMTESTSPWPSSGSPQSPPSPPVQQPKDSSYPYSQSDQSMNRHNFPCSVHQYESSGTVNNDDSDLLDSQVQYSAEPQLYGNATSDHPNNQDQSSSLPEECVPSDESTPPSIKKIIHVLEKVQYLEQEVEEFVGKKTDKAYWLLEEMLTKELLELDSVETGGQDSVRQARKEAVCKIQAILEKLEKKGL

Experiment [6] addresses T6, HeLa cell extract proteins (Homo sapiens, UniProt O43747).
T6 construct: endogenous in cells; host or cells: HeLa cell extract
T6 sequence (O43747 1-822): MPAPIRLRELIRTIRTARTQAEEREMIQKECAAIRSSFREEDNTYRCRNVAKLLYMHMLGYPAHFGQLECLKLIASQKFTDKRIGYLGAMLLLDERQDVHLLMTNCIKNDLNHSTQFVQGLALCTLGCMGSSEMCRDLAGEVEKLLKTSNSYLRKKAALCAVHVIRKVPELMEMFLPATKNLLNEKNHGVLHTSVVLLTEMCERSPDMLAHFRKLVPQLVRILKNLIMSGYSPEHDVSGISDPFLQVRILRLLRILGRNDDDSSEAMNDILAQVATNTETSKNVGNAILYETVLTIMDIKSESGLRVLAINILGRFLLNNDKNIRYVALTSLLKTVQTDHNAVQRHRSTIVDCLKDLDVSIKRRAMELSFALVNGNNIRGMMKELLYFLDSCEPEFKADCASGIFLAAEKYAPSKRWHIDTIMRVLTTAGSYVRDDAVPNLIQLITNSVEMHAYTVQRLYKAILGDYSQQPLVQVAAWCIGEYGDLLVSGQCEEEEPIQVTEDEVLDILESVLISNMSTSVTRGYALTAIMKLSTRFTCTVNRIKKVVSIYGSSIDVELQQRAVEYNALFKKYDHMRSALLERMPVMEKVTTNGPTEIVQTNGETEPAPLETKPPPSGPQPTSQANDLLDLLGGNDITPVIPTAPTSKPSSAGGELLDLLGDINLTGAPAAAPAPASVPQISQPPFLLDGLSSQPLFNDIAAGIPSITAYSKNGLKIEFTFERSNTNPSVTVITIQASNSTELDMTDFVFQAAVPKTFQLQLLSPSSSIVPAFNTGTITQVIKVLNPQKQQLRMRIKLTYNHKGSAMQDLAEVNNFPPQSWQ

Setting [7] is: HeLa, protein BAG4 (BAG FAMILY MOLECULAR CHAPERONE REGULATOR 4).

Like-named read-outs stand apart in the source and are kept apart here.

T4 sequence (Q63HN8 whole entry): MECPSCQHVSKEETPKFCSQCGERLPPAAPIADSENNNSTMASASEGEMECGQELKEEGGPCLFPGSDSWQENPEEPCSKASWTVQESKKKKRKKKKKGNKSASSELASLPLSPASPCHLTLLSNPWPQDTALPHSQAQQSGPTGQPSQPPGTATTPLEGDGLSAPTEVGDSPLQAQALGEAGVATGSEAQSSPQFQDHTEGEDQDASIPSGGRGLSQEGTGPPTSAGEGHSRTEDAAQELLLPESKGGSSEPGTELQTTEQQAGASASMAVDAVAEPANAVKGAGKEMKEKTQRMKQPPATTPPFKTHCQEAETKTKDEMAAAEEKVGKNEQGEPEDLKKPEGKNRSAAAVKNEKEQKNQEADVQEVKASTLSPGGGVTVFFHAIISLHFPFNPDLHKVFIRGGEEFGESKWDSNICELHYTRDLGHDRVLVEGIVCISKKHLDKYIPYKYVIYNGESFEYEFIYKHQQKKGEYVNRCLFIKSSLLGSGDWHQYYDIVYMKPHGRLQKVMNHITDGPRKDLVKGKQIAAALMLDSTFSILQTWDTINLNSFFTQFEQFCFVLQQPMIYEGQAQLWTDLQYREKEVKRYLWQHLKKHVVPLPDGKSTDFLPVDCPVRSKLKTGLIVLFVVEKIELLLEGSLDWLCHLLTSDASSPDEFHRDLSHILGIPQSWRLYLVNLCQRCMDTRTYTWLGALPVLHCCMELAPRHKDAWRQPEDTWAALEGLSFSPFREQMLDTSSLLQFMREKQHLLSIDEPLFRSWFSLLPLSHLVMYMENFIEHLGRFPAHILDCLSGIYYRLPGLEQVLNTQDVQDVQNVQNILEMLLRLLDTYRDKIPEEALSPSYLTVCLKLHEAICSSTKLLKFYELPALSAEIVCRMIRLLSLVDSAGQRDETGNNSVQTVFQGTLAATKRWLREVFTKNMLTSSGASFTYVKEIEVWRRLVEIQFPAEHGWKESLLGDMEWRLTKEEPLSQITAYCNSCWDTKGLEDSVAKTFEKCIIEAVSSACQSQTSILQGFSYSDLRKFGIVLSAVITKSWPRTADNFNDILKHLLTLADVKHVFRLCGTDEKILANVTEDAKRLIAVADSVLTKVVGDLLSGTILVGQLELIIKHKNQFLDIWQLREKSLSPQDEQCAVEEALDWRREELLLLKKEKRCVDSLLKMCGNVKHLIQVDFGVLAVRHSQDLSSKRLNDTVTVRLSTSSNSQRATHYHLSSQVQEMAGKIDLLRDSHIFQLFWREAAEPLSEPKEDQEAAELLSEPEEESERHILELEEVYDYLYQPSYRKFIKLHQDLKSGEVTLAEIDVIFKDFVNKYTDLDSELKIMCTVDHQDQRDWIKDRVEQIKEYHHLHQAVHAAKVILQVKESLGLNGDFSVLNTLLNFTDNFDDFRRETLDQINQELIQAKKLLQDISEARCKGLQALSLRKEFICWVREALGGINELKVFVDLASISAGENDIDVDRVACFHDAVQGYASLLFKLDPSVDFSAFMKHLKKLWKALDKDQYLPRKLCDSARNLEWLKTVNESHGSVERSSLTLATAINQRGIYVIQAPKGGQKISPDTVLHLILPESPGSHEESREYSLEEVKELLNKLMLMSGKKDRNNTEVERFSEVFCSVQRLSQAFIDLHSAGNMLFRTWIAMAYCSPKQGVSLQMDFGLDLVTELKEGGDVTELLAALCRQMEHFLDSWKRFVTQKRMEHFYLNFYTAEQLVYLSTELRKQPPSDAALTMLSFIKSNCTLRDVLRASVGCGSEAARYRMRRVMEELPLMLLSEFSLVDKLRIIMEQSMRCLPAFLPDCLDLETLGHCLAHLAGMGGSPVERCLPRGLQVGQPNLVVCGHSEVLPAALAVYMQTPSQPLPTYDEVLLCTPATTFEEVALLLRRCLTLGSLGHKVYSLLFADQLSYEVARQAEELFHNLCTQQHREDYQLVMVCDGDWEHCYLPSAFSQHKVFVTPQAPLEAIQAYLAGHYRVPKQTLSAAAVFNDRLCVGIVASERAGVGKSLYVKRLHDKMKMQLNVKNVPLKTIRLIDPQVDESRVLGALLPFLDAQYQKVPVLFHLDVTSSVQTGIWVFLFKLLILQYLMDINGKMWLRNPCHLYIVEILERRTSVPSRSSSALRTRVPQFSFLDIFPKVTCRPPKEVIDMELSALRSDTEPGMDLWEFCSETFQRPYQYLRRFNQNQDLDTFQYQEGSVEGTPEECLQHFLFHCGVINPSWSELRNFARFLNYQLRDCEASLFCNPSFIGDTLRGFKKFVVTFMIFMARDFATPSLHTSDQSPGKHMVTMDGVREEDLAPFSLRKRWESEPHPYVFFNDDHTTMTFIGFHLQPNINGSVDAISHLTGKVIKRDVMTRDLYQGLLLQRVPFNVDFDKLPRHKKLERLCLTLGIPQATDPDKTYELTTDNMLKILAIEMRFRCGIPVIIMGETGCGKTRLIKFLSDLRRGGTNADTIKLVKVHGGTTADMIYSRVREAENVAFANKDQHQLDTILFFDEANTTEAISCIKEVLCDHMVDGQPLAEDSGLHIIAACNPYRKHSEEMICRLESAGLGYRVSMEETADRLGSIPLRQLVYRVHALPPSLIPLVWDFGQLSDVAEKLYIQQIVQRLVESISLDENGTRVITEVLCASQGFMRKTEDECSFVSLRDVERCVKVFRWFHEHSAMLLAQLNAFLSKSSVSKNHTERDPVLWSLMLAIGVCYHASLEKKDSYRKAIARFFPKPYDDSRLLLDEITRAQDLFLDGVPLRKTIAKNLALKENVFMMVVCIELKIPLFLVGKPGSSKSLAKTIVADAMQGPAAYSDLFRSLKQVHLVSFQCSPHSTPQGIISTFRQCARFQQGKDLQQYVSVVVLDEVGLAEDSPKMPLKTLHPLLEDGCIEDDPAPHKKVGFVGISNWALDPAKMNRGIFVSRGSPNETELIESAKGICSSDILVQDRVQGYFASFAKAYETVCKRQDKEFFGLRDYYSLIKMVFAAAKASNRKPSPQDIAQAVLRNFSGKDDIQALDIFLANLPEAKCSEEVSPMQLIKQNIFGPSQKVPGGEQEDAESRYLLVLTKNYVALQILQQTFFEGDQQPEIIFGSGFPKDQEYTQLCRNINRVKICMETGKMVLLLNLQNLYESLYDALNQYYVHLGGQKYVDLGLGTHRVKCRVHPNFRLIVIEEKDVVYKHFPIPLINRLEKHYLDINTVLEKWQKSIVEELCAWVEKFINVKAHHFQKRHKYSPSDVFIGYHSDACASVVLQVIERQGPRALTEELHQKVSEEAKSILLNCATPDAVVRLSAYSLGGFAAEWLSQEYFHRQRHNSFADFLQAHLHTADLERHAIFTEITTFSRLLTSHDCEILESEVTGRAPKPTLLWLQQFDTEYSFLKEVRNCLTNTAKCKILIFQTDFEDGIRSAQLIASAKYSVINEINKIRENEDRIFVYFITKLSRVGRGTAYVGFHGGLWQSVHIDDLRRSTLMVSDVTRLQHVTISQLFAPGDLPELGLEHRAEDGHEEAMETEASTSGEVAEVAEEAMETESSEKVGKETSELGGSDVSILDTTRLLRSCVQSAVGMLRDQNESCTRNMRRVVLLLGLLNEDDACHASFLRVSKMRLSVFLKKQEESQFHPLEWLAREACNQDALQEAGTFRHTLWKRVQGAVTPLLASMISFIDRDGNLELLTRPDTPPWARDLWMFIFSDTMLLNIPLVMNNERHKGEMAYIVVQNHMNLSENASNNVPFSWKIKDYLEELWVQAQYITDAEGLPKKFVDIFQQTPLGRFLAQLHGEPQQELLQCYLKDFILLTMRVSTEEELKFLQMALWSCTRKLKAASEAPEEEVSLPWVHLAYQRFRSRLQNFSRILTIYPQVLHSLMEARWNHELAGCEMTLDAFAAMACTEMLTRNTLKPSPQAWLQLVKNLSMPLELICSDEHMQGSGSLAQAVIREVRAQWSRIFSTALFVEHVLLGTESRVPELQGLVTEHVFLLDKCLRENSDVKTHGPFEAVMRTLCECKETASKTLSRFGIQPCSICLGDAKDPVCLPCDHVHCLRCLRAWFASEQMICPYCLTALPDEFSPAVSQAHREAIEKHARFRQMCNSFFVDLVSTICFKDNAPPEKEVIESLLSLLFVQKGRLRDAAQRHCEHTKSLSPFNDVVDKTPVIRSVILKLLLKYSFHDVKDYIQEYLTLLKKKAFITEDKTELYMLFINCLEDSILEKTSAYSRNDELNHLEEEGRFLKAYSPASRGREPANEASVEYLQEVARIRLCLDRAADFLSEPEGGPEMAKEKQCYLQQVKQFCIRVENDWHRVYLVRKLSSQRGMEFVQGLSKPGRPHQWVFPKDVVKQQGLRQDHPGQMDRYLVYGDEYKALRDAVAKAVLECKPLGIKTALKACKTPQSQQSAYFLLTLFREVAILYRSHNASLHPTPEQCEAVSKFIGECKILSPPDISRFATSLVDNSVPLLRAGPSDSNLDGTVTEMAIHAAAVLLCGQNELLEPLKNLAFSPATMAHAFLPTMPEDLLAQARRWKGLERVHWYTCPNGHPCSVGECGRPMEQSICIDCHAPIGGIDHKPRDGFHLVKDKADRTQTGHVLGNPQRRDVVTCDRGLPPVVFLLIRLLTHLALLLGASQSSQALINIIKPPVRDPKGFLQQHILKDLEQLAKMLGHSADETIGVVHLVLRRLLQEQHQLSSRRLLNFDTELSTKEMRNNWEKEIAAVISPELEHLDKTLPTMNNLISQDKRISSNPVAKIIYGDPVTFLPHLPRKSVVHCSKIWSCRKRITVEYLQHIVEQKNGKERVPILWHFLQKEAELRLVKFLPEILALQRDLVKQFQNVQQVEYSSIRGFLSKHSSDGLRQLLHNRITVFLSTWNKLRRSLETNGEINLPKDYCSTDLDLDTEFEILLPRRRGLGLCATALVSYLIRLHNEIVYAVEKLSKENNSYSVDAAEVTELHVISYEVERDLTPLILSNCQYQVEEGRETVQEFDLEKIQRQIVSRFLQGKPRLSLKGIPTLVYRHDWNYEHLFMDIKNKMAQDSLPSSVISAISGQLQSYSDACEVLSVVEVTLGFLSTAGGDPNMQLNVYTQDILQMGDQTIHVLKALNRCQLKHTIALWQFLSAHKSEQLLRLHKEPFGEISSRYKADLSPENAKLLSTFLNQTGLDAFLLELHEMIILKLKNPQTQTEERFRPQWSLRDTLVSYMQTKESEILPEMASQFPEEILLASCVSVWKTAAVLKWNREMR

Take `Nc1nc2c(c(=O)[nH]1)N(C=O)C(CNc1ccc(C(=O)N[C@@H](CCC(=O)O)C(=O)O)cc1)CN2` (stereo partly drawn) [LEU, leucovorin]: the “fold changes relative to vehicle control” value in experiment [1] (HeLa, protein YWHAE) amounted to 1.01; in experiment [2] (HeLa, protein AARS), 1.02; in experiment [3] (HeLa, captured protein NIT2), 1.04; in experiment [4] (HeLa, protein KIAA1618) it was 0.87; in experiment [5] (setting [7]), 1.2; in experiment [6] (HeLa, protein AP1G1), 1.1.
For the compound `Nc1nc2[nH]cc(CCc3ccc(C(=O)N[C@@H](CCC(=O)O)C(=O)O)cc3)c2c(=O)[nH]1` [PTX, pemetrexed], the “fold changes relative to vehicle control” value is recorded as 1.1 in experiment [1]; 1.1 in experiment [2]; 0.89 in experiment [3]; 1.01 in experiment [4]; 1.05 in experiment [5]; 1.09 in experiment [6].
Regarding `CCCCCCOc1ccc(Cc2cnc(N)nc2N)cc1` [compound 1], the “fold changes relative to vehicle control” value in experiment [1] (protein YWHAE, HeLa) is given as 1.37; in experiment [2] (protein AARS, HeLa), 1.15; in experiment [3] (protein NIT2, HeLa), 0.99; in experiment [4] (protein KIAA1618, HeLa), 0.98; in experiment [5] (captured protein BAG4, HeLa) it was 0.99; in experiment [6] (protein AP1G1, HeLa) it was 1.19.
Consider `CCCCCCOc1cccc(Cc2cnc(N)nc2N)c1` [compound 2], for which the “fold changes relative to vehicle control” value was 2 in experiment [1] (protein YWHAE, HeLa); 1.96 in experiment [2] (protein AARS, HeLa); 1.12 in experiment [3] (protein NIT2, HeLa); 0.95 in experiment [4] (protein KIAA1618, HeLa); 0.93 in experiment [5] (captured protein BAG4, HeLa); 1.51 in experiment [6] (protein AP1G1, HeLa).
Regarding `Nc1nc2cccc(-c3ccccc3)c2n1Cc1ccc(Cl)c(Cl)c1` [compound 3], the “fold changes relative to vehicle control” value in experiment [1] (protein YWHAE, HeLa) stood at 1.03; in experiment [2] (protein AARS, HeLa), 0.95; in experiment [3] (protein NIT2, HeLa), 0.84; in experiment [4] (protein KIAA1618, HeLa) it was 1.04; in experiment [5] (captured protein BAG4, HeLa) it was 1.25; in experiment [6] (protein AP1G1, HeLa) it was 0.97.
Turning to `NCCOCCOCC(=O)Nc1nc2ncc(CNc3ccc(C(=O)NC(CCC(=O)O)C(=O)O)cc3)nc2c(=O)[nH]1` (stereo not drawn) [compound 6], the “fold changes relative to vehicle control” value in experiment [1] (HeLa, protein YWHAE) was found to be 1.17; in experiment [2] (HeLa, protein AARS) it was 1.28; in experiment [3] (HeLa, captured protein NIT2), 0.84; in experiment [4] (HeLa, protein KIAA1618), 1.21; in experiment [5] (setting [7]), 1.03; in experiment [6] (HeLa, protein AP1G1), 1.17.
Take `NCCCNc1ccc(C(=O)NC(CCC(=O)O)C(=O)O)cc1` (stereo not drawn) [compound 7]: the “fold changes relative to vehicle control” value in experiment [1] (HeLa, protein YWHAE) is 1.03; in experiment [2] (HeLa, protein AARS) it was 1; in experiment [3] (HeLa, captured protein NIT2), 0.96; in experiment [4] (HeLa, protein KIAA1618), 1; in experiment [5] (setting [7]), 1.12; in experiment [6] (HeLa, protein AP1G1), 1.17.
